The values below come from US20240239792A1, “MODULATORS OF BCL-2 OR BCL-2/BCL-XL AND USES THEREOF” (APPICINE THERAPEUTICS (HK) LIMITED, priority 2021, published 2024).

As a reminder, the GI50 is the concentration at which growth is held to half of that of the control. For orientation: IC50 means the midpoint of a concentration-inhibition curve.

Experiment [1] concerns DOHH2 cells. Nature of the experiment: CellTiter-Glo cell proliferation assay, DOHH2 cells. The note with it: Homo sapiens, DOHH-2, 72 hours. It counts as cell-based. The procedure, abridged:
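GI50 derived from CellTiter-Glo luminescent viability signal. Cells grown in DMEM with 10% FBS received a compound dilution series for 72 h (37 °C, 5% CO2).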
Background: Cellular ATP, detected with luciferase, serves as a proxy for viable cell number.

Experiment [2] has as its target T1, BCL-2 (Homo sapiens, UniProt P10415).
T1 construct: purchased Cisbio 63ADK000CB01PEG
As to the kind of experiment: HTRF BCL-2/BAK assay (Cisbio). Type of experiment: binding. The note with it: recombinant human Tag1-BCL-2 2 nM, Tag2-BAK 10 nM. Here is the method:
(§1) Then the pre-mixed anti-Tag1-Eu^3+ and anti-tag2-XL665 were added to the plate and further incubated at room temperature for another 2 hours. The signals ([…]) were read on Envision 2104 instrument. The IC50 for each compound was derived from fitting the signal of 665/615 nM to the increasing compound concentration.
(§2) Using the above assays, the following compounds were tested.
(In general: TR-FRET usually uses a lanthanide donor and a delayed reading to cut background.)

The target in experiment [3] is T2, BCL-XL (Homo sapiens, UniProt Q07817).
T2 construct: purchased Cisbio 63ADK000CB04PEG
Nature of the experiment: HTRF BCL-XL/BAK assay (Cisbio). The note with it: recombinant human Tag1-BCL-XL 2 nM, Tag2-BAK 5 nM. Type of experiment: binding. Here is the method: as §1, §2

Molecules are shown by their SMILES.

T2 sequence (Q07817 whole entry): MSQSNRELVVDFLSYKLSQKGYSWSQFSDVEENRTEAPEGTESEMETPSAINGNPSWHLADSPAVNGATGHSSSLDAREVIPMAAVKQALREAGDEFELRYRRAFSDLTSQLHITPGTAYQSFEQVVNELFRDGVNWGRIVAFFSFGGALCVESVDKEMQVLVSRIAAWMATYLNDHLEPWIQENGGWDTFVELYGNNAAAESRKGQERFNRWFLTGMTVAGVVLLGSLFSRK
T1 sequence (P10415 whole entry): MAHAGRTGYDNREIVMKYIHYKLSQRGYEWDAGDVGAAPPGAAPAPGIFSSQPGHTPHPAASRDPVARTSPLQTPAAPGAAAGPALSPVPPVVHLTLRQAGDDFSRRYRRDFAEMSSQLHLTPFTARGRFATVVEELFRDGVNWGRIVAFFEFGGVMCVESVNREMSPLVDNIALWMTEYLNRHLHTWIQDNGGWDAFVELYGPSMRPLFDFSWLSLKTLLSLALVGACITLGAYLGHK

`CC(C)C(=O)N1CCC2(CC1)CC(CNc1ccc(S(=O)(=O)NC(=O)c3ccc(N4CCN([C@@H]5CCCCc6c(Cl)cccc65)CC4)cc3Oc3cnc4[nH]ccc4c3)cc1[N+](=O)[O-])C2` [Compound 124, (R)-2-((1H-pyrrolo[2,3-b]pyridin-5-yl)oxy)-4-(4-(1-chloro-6,7,8,9-tetrahydro-5H-benzo[7]annulen-5-yl)piperazin-1-yl)-N-((4-(((7-isobutyryl-7-azaspiro[3.5]nonan-2-yl)methyl)amino)-3-nitrophenyl)sulfonyl)benzamide] displayed a GI50 in experiment [1] of under 50 nM. Further, the IC50 is under 20 nM in experiment [2] and 20 to 200 nM in experiment [3].

In experiment [1], `O=C(NS(=O)(=O)c1ccc(NCC2CCOCC2)c([N+](=O)[O-])c1)c1ccc(N2CCN(C3CCCCc4c3cccc4[N+](=O)[O-])CC2)cc1Oc1cnc2[nH]ccc2c1` (stereo not drawn) [Compound 33, 2-((1H-pyrrolo[2,3-b]pyridin-5-yl)oxy)-N-((3-nitro-4-(((tetrahydro-2H-pyran-4-yl)methyl)amino)phenyl)sulfonyl)-4-(4-(1-nitro-6,7,8,9-tetrahydro-5H-benzo[7]annulen-5-yl)piperazin-1-yl)benzamide] registered a GI50 of under 50 nM. The figures for the IC50 in experiment [2] and in experiment [3] were under 20 nM and 20 to 200 nM, respectively.

As for `CN1CCc2ccccc2C(N2CCN(c3ccc(C(=O)NS(=O)(=O)c4ccc(NCC5CCOCC5)c([N+](=O)[O-])c4)c(Oc4cnc5[nH]ccc5c4)c3)CC2)C1=O` (stereo not drawn) [Compound 45, 2-((1H-pyrrolo[2,3-b]pyridin-5-yl)oxy)-4-(4-(3-methyl-2-oxo-2,3,4,5-tetrahydro-1H-benzo[d]azepin-1-yl)piperazin-1-yl)-N-((3-nitro-4-(((tetrahydro-2H-pyran-4-yl)methyl)amino)phenyl)sulfonyl)benzamide], the GI50 in experiment [1] is 500 to 5000 nM. For the same compound, the IC50 in experiment [2] is under 20 nM; in experiment [3], 200 to 2000 nM.

On to `O=C(NS(=O)(=O)c1ccc(NC[C@@H]2CO[C@@H]3OCC[C@H]23)c([N+](=O)[O-])c1)c1ccc(N2CCN([C@@H]3CCCCc4c(Br)cc(F)cc43)CC2)cc1Oc1cnc2[nH]ccc2c1` (relative stereo) [Compound 81, 2-((1H-pyrrolo[2,3-b]pyridin-5-yl)oxy)-4-(4-((R)-1-bromo-3-fluoro-6,7,8,9-tetrahydro-5H-benzo[7]annulen-5-yl)piperazin-1-yl)-N-((4-((((3R,3aR,6aS)-hexahydrofuro[2,3-b]furan-3-yl)methyl)amino)-3-nitrophenyl)sulfonyl)benzamide], for which, in experiment [1], the GI50 is 500 to 5000 nM. In addition, the IC50 in experiment [2] is 20 to 200 nM; in experiment [3], 200 to 2000 nM.

Turning to `O=C(NS(=O)(=O)c1ccc(NCC2CCOCC2)c([N+](=O)[O-])c1)c1ccc(N2CCN(C3CCCCc4ccc([N+](=O)[O-])cc43)CC2)cc1Oc1cnc2[nH]ccc2c1` (stereo not drawn) [Compound 30, 2-((1H-pyrrolo[2,3-b]pyridin-5-yl)oxy)-N-((3-nitro-4-(((tetrahydro-2H-pyran-4-yl)methyl)amino)phenyl)sulfonyl)-4-(4-(3-nitro-6,7,8,9-tetrahydro-5H-benzo[7]annulen-5-yl)piperazin-1-yl)benzamide], the GI50 in experiment [1] lay in the range of 500 to 5000 nM. Moreover, the IC50 in experiment [2] is under 20 nM; in experiment [3], 200 to 2000 nM.

Consider `O=C(NS(=O)(=O)c1ccc(NCC2CCOCC2)c([N+](=O)[O-])c1)c1ccc(N2CCN(C3CCCCc4ccc(Cl)cc43)CC2)cc1Oc1cnc2[nH]ccc2c1` (stereo not drawn) [Compound 26, 2-((1H-pyrrolo[2,3-b]pyridin-5-yl)oxy)-4-(4-(3-chloro-6,7,8,9-tetrahydro-5H-benzo[7]annulen-5-yl)piperazin-1-yl)-N-((3-nitro-4-(((tetrahydro-2H-pyran-4-yl)methyl)amino)phenyl)sulfonyl)benzamide], for which the GI50 in experiment [1] was in the range of 50 to 500 nM. The IC50 is under 20 nM in experiment [2] and over 2000 nM in experiment [3].

`O=C(NS(=O)(=O)c1ccc(NCC2CCC3(CC2)COC3)c([N+](=O)[O-])c1)c1ccc(N2CCN([C@@H]3CCCCc4c(Br)cc(F)cc43)CC2)cc1Oc1cnc2[nH]ccc2c1` [Compound 79, (R)-2-((1H-pyrrolo[2,3-b]pyridin-5-yl)oxy)-N-((4-(((2-oxaspiro[3.5]nonan-7-yl)methyl)amino)-3-nitrophenyl)sulfonyl)-4-(4-(1-bromo-3-fluoro-6,7,8,9-tetrahydro-5H-benzo[7]annulen-5-yl)piperazin-1-yl)benzamide] registered a GI50 in experiment [1] of 50 to 500 nM. In addition, the IC50 in experiment [2] is under 20 nM; in experiment [3], 200 to 2000 nM.

With `O=C(NS(=O)(=O)c1ccc(NCC2CC3(CCN(CCO)CC3)C2)c([N+](=O)[O-])c1)c1ccc(N2CCN([C@@H]3CCCCc4c(Cl)cccc43)CC2)cc1Oc1cnc2[nH]ccc2c1` [Compound 121, (R)-2-((1H-pyrrolo[2,3-b]pyridin-5-yl)oxy)-4-(4-(1-chloro-6,7,8,9-tetrahydro-5H-benzo[7]annulen-5-yl)piperazin-1-yl)-N-((4-(((7-(2-hydroxyethyl)-7-azaspiro[3.5]nonan-2-yl)methyl)amino)-3-nitrophenyl)sulfonyl)benzamide], the GI50 in experiment [1] was under 50 nM. Moreover, the IC50 in experiment [2] and in experiment [3] was under 20 nM each time.

The compound `O=C(NS(=O)(=O)c1ccc(NCC2CCOCC2)c([N+](=O)[O-])c1)c1ccc(N2CCN(C3CCCCc4c(-c5cn[nH]c5)cccc43)CC2)cc1Oc1cnc2[nH]ccc2c1` (stereo not drawn) [Compound 52, 4-(4-(1-(1H-pyrazol-4-yl)-6,7,8,9-tetrahydro-5H-benzo[7]annulen-5-yl)piperazin-1-yl)-2-((1H-pyrrolo[2,3-b]pyridin-5-yl)oxy)-N-((3-nitro-4-(((tetrahydro-2H-pyran-4-yl)methyl)amino)phenyl)sulfonyl)benzamide] came in with a GI50 in experiment [1] of over 5000 nM. For the same compound, the IC50 was 20 to 200 nM in experiment [2] and over 2000 nM in experiment [3].

For the compound `O=C(NS(=O)(=O)c1ccc(NCC2CCOCC2)c([N+](=O)[O-])c1)c1ccc(N2CCN(C3CCCc4cccc(-c5ccc(Cl)cc5)c43)CC2)cc1Oc1cnc2[nH]ccc2c1` (stereo not drawn) [Compound 16, 2-((1H-pyrrolo[2,3-b]pyridin-5-yl)oxy)-4-(4-(8-(4-chlorophenyl)-1,2,3,4-tetrahydronaphthalen-1-yl)piperazin-1-yl)-N-((3-nitro-4-(((tetrahydro-2H-pyran-4-yl)methyl)amino)phenyl)sulfonyl)benzamide], the GI50 in experiment [1] was 500 to 5000 nM. The IC50 in experiment [2] is under 20 nM; in experiment [3], 200 to 2000 nM.

`CN1CCC(CNc2ccc(S(=O)(=O)NC(=O)c3ccc(N4CCN([C@@H]5CCCCc6c(Br)cccc65)CC4)cc3Oc3cnc4[nH]ccc4c3)cc2[N+](=O)[O-])CC1` [Compound 69, (R)-2-((1H-pyrrolo[2,3-b]pyridin-5-yl)oxy)-4-(4-(1-bromo-6,7,8,9-tetrahydro-5H-benzo[7]annulen-5-yl)piperazin-1-yl)-N-((4-(((1-methylpiperidin-4-yl)methyl)amino)-3-nitrophenyl)sulfonyl)benzamide] registered a GI50 in experiment [1] of under 50 nM. In addition, the 50% inhibitory concentration (IC50) in experiment [2] and in experiment [3] was under 20 nM each time.

Take `O=C(NS(=O)(=O)c1ccc(NCC2CCn3ccnc3C2)c([N+](=O)[O-])c1)c1ccc(N2CCN(C3CCCCc4c(Cl)cccc43)CC2)cc1Oc1cnc2[nH]ccc2c1` (stereo not drawn) [Compound 53, 2-((1H-pyrrolo[2,3-b]pyridin-5-yl)oxy)-4-(4-(1-chloro-6,7,8,9-tetrahydro-5H-benzo[7]annulen-5-yl)piperazin-1-yl)-N-((3-nitro-4-(((5,6,7,8-tetrahydroimidazo[1,2-a]pyridin-7-yl)methyl)amino)phenyl)sulfonyl)benzamide]: the concentration for 50% growth inhibition (GI50) in experiment [1] lay within 50 to 500 nM. Also, the IC50 in experiment [2] and in experiment [3] was under 20 nM each time.

For `O=C(NS(=O)(=O)c1ccc(NCC2CC3(COC3)C2)c([N+](=O)[O-])c1)c1ccc(N2CCN(C3CCCCc4c(Cl)cccc43)CC2)cc1Oc1cnc2[nH]ccc2c1` (stereo not drawn) [Compound 46, 2-((1H-pyrrolo[2,3-b]pyridin-5-yl)oxy)-N-((4-(((2-oxaspiro[3.3]heptan-6-yl)methyl)amino)-3-nitrophenyl)sulfonyl)-4-(4-(1-chloro-6,7,8,9-tetrahydro-5H-benzo[7]annulen-5-yl)piperazin-1-yl)benzamide], in experiment [1], the GI50 is under 50 nM. Also, the IC50 in experiment [2] was under 20 nM; in experiment [3], 20 to 200 nM.

In experiment [1], `CCP(=O)(CC)c1cccc2c1CCCCC2N1CCN(c2ccc(C(=O)NS(=O)(=O)c3ccc(NCC4CCOCC4)c([N+](=O)[O-])c3)c(Oc3cnc4[nH]ccc4c3)c2)CC1` (stereo not drawn) [Compound 62, 2-((1H-pyrrolo[2,3-b]pyridin-5-yl)oxy)-4-(4-(1-(diethylphosphoryl)-6,7,8,9-tetrahydro-5H-benzo[7]annulen-5-yl)piperazin-1-yl)-N-((3-nitro-4-(((tetrahydro-2H-pyran-4-yl)methyl)amino)phenyl)sulfonyl)benzamide] displayed a GI50 of over 5000 nM. In addition, the figures for the IC50 in experiment [2] and in experiment [3] were 20 to 200 nM and over 2000 nM, respectively.

As to `O=C(NS(=O)(=O)c1ccc(NCC2CCOCC2)c([N+](=O)[O-])c1)c1ccc(N2CCN(C3CCCCc4c(-c5cccnc5)cccc43)CC2)cc1Oc1cnc2[nH]ccc2c1` (stereo not drawn) [Compound 49, 2-((1H-pyrrolo[2,3-b]pyridin-5-yl)oxy)-N-((3-nitro-4-(((tetrahydro-2H-pyran-4-yl)methyl)amino)phenyl)sulfonyl)-4-(4-(1-(pyridin-3-yl)-6,7,8,9-tetrahydro-5H-benzo[7]annulen-5-yl)piperazin-1-yl)benzamide], the GI50 in experiment [1] lay in the range of 500 to 5000 nM. The results for the IC50 in experiment [2] and in experiment [3] were under 20 nM and 200 to 2000 nM, respectively.
